{"source": "patent US10046050B2", "about": "“Targeting immunotherapy for amyloidosis” (UNIVERSITY OF TENNESSEE RESEARCH FOUNDATION, priority 2014, dated 2018)", "key": {"[1]": {"test_system": "^125I-7D8", "assay": "Pulldown assay with peptope-coated polystyrene beads", "format": "binding", "conditions": "peptope conjugated to polystyrene beads; ˜0.065 nM ^125I-7D8", "protocol": "(§1) The 7D8 antibody (15 μg) was radiolabeled with 0.5 mCi of reductant-free iodine-125 (^125I, Perkin Elmer) using limiting amounts of chloramine T (10 μg) and suspended in PBS containing 0.1% gelatin as carrier protein. Unbound radioisotope and protein aggregates were removed from the preparation by size-exclusion liquid chromatography using an Ultrogel AcA34 solid phase (Amersham Pharmacia). Fractions containing ^125I-7D8 were pooled for pull-down assays. The relative radiopurity of the preparation was assessed by SDS/PAGE (4-12% acrylamide; Novex) followed by imaging using a phosphor-imager (Cyclone).\n(§2) Pulldown assays were performed using ^125I-7D8 using, as a substrate, peptope-conjugated to polystyrene beads, synthetic fibrils (Aβ[1-40] or IAPP) or human ATTR amyloid extracts (transthyretin-associated amyloid [ATTR] was previously isolated from the organs of three different patients with Appalachian mutation—Thr60Ala). […] The sample was mixed end over end for 1 h at room temperature, and the bound and free ^125I-7D8 were then separated by serial centrifugations at 16,000×g and the percent bound calculated immunoreactivity=[boundcpm/(boundcpm+freecpm)]×100 Pulldown assays using synthetic fibrils and amyloid extracts were performed essentially as described herein. […]"}, "[2]": {"target": "T1, Aβ(1-40) fibrils (Homo sapiens, UniProt P05067)", "T1 construct": "synthetic amyloid fibrils composed of rVλ6Wil (AL fibrils) or Aβ(1-40); host or cells: synthetic peptide fibrils", "T1 sequence (P05067 672-711 limits assumed)": "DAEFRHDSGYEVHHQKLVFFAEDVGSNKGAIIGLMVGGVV", "assay": "Pulldown assay of ^125I-7D8 with fibrils +/- peptope", "format": "binding", "conditions": "fibrils pre-incubated with peptope (65 nM)", "protocol": "as §1, §2"}}}
{"sequence": "KAQKAQAKQAKQAQKAQKAQAKQAKQAQHEDT [p75, KAQKAQAKQAKQAQKAQKAQAKQAKQAQHEDT]", "values": [{"measurement": "percent of added ^125I-7D8 bound", "setting": "[1]", "value": 62.3, "unit": "%"}, {"measurement": "bound mAb", "setting": "[2]", "value": 58.9, "unit": "%"}]}
